This note sets out measurements from BindingDB's records for doi:10.1021/jm00196a019 (1979).

This assay has as its system Enterococcus faecalis. As to the kind of experiment: Antibacterial activity against Streptococcus faecalis assessed as growth inhibition.

What is called IC50 is the midpoint of a concentration-inhibition curve.

In the case of `Nc1nc(N)c2cc(S(=O)(=O)c3ccc4ccccc4c3)ccc2n1` [6-naphthalen-2-ylsulfonylquinazoline-2,4-diamine], the IC50 turned out to be 0.02 nM.
